These results are taken from US9604960B2, “Aryl, heteroaryl, and heterocycle substituted tetrahydroisoquinolines and use thereof” (Albany Molecular Research, Inc., priority 2009, dated 2017).

One assay has as its target hDAT (Homo sapiens (Human), UniProt Q01959). Briefly: DAT radioligand binding assay ([125I]RTI-55). To be noted: (+)-enantiomers; membranes of HEK-293 cells expressing hDAT. As for the experimental part:
Recombinant HEK-293 cells expressing either the hSERT, hDAT, or hNET proteins were harvested from T-175 flasks as follows. The medium was removed from the flasks and the cells rinsed with HBSS without Ca and without Mg. The cells were then incubated for 5-10 minutes in 10 mM Tris-Cl, pH 7.5, 5 mM EDTA before the cells were lifted with a combination of pipetting and scraping, as needed. The cell suspension was collected into centrifuge bottles and homogenized for 30 seconds with a Polytron homogenizer. The suspension was centrifuged for 30 minutes at 32,000×g, 4° C. The supernatant was decanted and the pellet resuspended and homogenized in 50 mM Tris-Cl, pH 7.5, 1 mM EDTA for 10 seconds. […]
Compounds were dissolved in 100% DMSO at a concentration 100 times the desired highest assay concentration, serially diluted 1:3 in 100% DMSO, and 0.4 μl/well of each solution was dispensed to a Nunc polypropylene, round bottom, 384-well plate. […] The plates were air-dried overnight, 12 μl/well of MicroScint scintillation fluid added, and the plates counted in a Trilux.
The raw data was normalized to percent inhibition using control wells defining 0% (DMSO only) and 100% (selective inhibitor) inhibition which were run on each plate. […] The radioligand concentration chosen for each assay corresponds to the Kd concentration determined through saturation binding analysis for each assay.

The target of another assay is hSERT (Homo sapiens (Human), UniProt P31645). Briefly: SERT radioligand binding assay ([125I]RTI-55). Conditions: (+)-enantiomers; membranes of HEK-293 cells expressing hSERT. As for the experimental part:
The medium was removed from the flasks and the cells rinsed with HBSS without Ca and without Mg. The cells were then incubated for 5-10 minutes in 10 mM Tris-Cl, pH 7.5, 5 mM EDTA before the cells were lifted with a combination of pipetting and scraping, as needed. The cell suspension was collected into centrifuge bottles and homogenized for 30 seconds with a Polytron homogenizer. The suspension was centrifuged for 30 minutes at 32,000×g, 4° C. The supernatant was decanted and the pellet resuspended and homogenized in 50 mM Tris-Cl, pH 7.5, 1 mM EDTA for 10 seconds. The suspension was then centrifuged again for 30 minutes at 32,000×g, 4° C. The supernatant was decanted and the pellet resuspended in 50 mM Tris-Cl, pH 7.5, 1 mM EDTA and briefly homogenized. A Bradford assay (Bio-rad) was performed and the membrane preparation diluted to 2 mg/ml with 50 mM Tris-Cl, pH 7.5, 1 mM EDTA. Aliquots were prepared, and then frozen and stored at −80° C.
Compounds were dissolved in 100% DMSO at a concentration 100 times the desired highest assay concentration, serially diluted 1:3 in 100% DMSO, and 0.4 μl/well of each solution was dispensed to a Nunc polypropylene, round bottom, 384-well plate. […] The plates were air-dried overnight, 12 μl/well of MicroScint scintillation fluid added, and the plates counted in a Trilux. […]

The next assay deals with Male Swiss Webster mice. Briefly: Mouse tail suspension assay. The assay is classed as in vivo. To be noted: acute administration, immobility. As for the experimental part: Male Swiss Webster mice were housed 3-4 per cage in rooms maintained at a constant temperature (21-23° C.) and humidity (50±10%) on a 12-hour light/dark cycle. Animals had ad libitum access to water and food throughout studies. On the day of testing, they were brought into the testing room and allowed to acclimate for one hour. To begin testing, the tail was attached to a piece of tape which is then attached to a hook on the ceiling of a sound-attenuated chamber. Immobility was automatically recorded using the Med Associates software. Compounds were administered acutely at a fixed pretreatment interval before session.

For orientation: IC50 means the concentration that gives 50% inhibition.

Sequence of hDAT (Q01959 whole entry): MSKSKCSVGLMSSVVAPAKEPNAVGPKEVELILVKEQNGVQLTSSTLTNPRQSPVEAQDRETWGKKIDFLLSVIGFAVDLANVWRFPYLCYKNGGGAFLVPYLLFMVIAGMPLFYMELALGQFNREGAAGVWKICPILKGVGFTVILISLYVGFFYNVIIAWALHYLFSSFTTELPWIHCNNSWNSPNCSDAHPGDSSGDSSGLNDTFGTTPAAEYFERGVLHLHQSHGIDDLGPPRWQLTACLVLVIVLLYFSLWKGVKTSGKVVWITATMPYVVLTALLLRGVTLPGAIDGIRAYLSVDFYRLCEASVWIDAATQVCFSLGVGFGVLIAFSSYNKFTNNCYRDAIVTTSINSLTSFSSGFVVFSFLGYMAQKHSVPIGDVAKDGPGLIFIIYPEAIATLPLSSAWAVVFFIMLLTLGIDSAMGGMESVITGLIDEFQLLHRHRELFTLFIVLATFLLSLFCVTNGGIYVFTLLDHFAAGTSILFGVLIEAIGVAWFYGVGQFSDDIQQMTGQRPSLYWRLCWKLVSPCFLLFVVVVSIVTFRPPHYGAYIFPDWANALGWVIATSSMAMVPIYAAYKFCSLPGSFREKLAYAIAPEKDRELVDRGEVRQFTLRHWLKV
Sequence of hSERT (P31645 whole entry): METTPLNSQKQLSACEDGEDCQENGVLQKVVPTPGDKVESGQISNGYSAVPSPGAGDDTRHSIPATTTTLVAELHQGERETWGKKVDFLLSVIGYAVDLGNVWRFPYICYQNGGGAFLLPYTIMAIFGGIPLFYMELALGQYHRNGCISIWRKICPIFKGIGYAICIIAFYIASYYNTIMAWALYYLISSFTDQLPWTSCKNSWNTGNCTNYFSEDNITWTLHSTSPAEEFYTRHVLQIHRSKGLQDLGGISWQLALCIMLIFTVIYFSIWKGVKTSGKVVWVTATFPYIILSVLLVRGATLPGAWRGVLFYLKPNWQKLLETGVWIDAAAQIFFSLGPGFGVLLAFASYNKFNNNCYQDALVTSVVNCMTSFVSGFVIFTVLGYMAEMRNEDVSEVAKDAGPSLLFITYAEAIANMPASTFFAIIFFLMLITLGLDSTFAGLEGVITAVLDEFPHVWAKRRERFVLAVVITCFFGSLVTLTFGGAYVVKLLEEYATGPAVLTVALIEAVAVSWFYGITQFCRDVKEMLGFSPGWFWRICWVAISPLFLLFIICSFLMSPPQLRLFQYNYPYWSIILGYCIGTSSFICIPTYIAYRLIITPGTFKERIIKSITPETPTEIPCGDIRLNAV

Consider `CC1(C)NCC(c2ccc(Cl)c(Cl)c2)c2ccc(-c3ccc(C(F)(F)F)nn3)cc21` (single isomer, unassigned) [Example 10, 4-(3,4-dichlorophenyl)-7-(6-(trifluoromethyl)pyridazin-3-yl)-1,1-dimethyl-1,2,3,4-tetrahydroisoquinoline], for which the values for the IC50 on hDAT and on hSERT were 0.028 µM and 0.026 µM, respectively.

Take `Clc1ccc(C2CNCc3cc(-c4ccc5ncnn5c4)ccc32)cc1Cl` (stereo not drawn) [Example 36, 7-([1,2,4]triazolo[1,5-a]pyridin-6-yl)-4-(3,4-dichlorophenyl)-1,2,3,4-tetrahydroisoquinoline]: the “minimum effective dose in the mouse tail suspension study” value with Male Swiss Webster mice came to 10 mg/kg.
